# Experiments:
# human SSTR5 = target: T1, human SSTR5 (Homo sapiens, UniProt P35346); test: Evaluation of human SSTR5 antagonist activity using intracellular cAMP concentration as index; format: cell-based; conditions: 1 uM test compound; CHO (dhfr-) cells stably expressing human SSTR5; 0.1 nM somatostatin 28 and 0.3 uM forskolin; HTRF cAMP; read-out: Inhibition rate against SSTR5 at 1 uM
# T1 construct: expressed in transfected cells
# Protocol: Evaluation of Human SSTR5 Antagonist Activity Using Intracellular cAMP Concentration as Index
# The intracellular cAMP concentration was measured using HTRF cAMP dynamic 2 kit (Cisbio Bioassays). Each test compound diluted with an assay buffer (HBSS (Invitrogen Corp.) containing 5 mM HEPES (pH 7.5) (Invitrogen Corp.), 0.1% fatty-acid free BSA (Sigma-Aldrich Corp.), and 500 u (“u” represents “micro”)M IBMX (Wako Pure Chemical Industries, Ltd.)) was added at a concentration of 2 uL/well to a 384-well white plate (Greiner Bio-One Co., Ltd.) to give the final concentration of 1 uM. A frozen stock of CHO (dhfr−) cells stably expressing the human SSTR5 gene (Accession No. NM_001053) was thawed in a thermostat bath of 37 C and suspended in a subculture medium (MEM alpha (Wako Pure Chemical Industries, Ltd.), 10% dialyzed serum (Gemini Bio-Products), and 50 ug/mL gentamicin (Invitrogen Corp.). After centrifugation of the cell suspension, the cells were resuspended in an assay buffer and added at a concentration of 2 uL/well (about 4,000 cells/well) to the plate. The compound and the cells were incubated for 15 minutes, and then, an assay buffer containing 0.1 nM (final concentration) somatostatin 28 (Toray Research Center) and 0.3 uM (final concentration) forskolin (Wako Pure Chemical Industries, Ltd.) was added thereto at a concentration of 2 uL/well, followed by incubation at room temperature for 30 minutes. cAMP-d2 and anti-cAMP-cryptate were each added thereto at a concentration of 3 uL/well. The plate was left standing at room temperature for 60 minutes. Then, the fluorescence resonance energy transfer (FRET) intensity was measured using Multi-label reader Envision (PerkinElmer). The FRET intensity of the wells supplemented with the test compound group was converted to a cAMP concentration using a calibration curve prepared from the FRET intensity of a well group containing an assay buffer supplemented with an arbitrary concentration of cAMP. The inhibitory activity of each compound was calculated according to the following expression: Inhibitory activity(%)=(C−B)/(A−B)×100 A: cAMP concentration calculated from the wells supplemented with 0.3 uM forskolin B: cAMP concentration calculated from the wells supplemented with 0.3 uM forskolin and 0.1 nM somatostatin 28 C: cAMP concentration calculated from the wells supplemented with 0.3 uM forskolin, 0.1 nM somatostatin 28, and 1 uM test compound
# [1] = system: Female KK-Ay/Ta mice, a type 2 diabetes model; test: Antidiabetic effect in mice (glycated hemoglobin after 2 weeks of treatment); format: in vivo; conditions: 1 mg/kg orally once a day for 2 weeks, n=8
# From the text: Antidiabetic Effect in Mice
# Female KK-Ay/Ta mice (Clea Japan Inc.), a type 2 diabetes model, were used in this study. At the age of 7-week old, blood sample were collected from tail vein at 8:00 am, and animals were divided into separate groups (n=8) based on glycated hemoglobin (GHb), plasma glucose, insulin, triglyceride levels and body weight. Vehicle (0.5% (w/v) methylcellulose) or compounds (suspended in vehicle) were orally administered once a day for 2 weeks. After 2 weeks of treatment, GHb was determined by auto-analyzer HLC-723G8 (TOSOH, Japan).
# T1 sequence (P35346 whole entry): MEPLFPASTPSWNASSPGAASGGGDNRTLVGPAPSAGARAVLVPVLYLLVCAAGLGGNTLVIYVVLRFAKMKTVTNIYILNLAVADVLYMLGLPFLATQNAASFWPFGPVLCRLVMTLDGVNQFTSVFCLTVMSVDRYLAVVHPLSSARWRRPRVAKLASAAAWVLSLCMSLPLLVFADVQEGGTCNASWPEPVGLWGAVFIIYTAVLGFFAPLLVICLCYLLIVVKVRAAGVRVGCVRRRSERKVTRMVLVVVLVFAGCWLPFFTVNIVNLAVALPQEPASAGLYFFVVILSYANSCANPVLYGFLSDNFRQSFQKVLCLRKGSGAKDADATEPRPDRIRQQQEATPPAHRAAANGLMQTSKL
Compound,inhibition at 1 µM (human SSTR5) [%],average of delta GHb (%) [1] [%]
"CCOc1cc(C2CCC2)c(C2CC2)cc1CN1CCC(n2ccc(C(=O)O)cc2=O)CC1 [Example 1, 1-(1-(4-cyclobutyl-5-cyclopropyl-2-ethoxybenzyl)piperidin-4-yl)-2-oxo-1,2-dihydropyridine-4-carboxylic acid]",84,–
"CC(C)Oc1nc(-c2ccc(F)cc2)c(C2CC2)cc1CN1CCC(n2ccc(C(=O)O)cc2=O)CC1 [Example 2, 1-(1-((5-cyclopropyl-6-(4-fluorophenyl)-2-isopropoxypyridin-3-yl)methyl)piperidin-4-yl)-2-oxo-1,2-dihydropyridine-4-carboxylic acid]",134,–
"CC(C)Oc1cc(-c2ccc(F)cc2)c(C2CC2)cc1CN1CCC(n2ccc(C(=O)O)cc2=O)CC1 [Example 3, 1-(1-((2-cyclopropyl-4′-fluoro-5-isopropoxybiphenyl-4-yl)methyl)piperidin-4-yl)-2-oxo-1,2-dihydropyridine-4-carboxylic acid]",116,–
"CC(C)Oc1cc(C2CC2)c(C2CC2)cc1CN1CCC(n2ccc(C(=O)O)cc2=O)CC1 [Example 4, 1-(1-(4,5-dicyclopropyl-2-isopropoxybenzyl)piperidin-4-yl)-2-oxo-1,2-dihydropyridine-4-carboxylic acid]",120,–
"CC(C)Oc1c(CN2CCC(n3ccc(C(=O)O)cc3=O)CC2)cc(C2CC2)c(-c2ccc(F)cc2F)c1Cl [Example 5, 1-(1-((2-chloro-6-cyclopropyl-2′,4′-difluoro-3-isopropoxybiphenyl-4-yl)methyl)piperidin-4-yl)-2-oxo-1,2-dihydropyridine-4-carboxylic acid]",88,–
"CCc1c(C(=O)O)ccn(C2CCN(Cc3cc(C4CC4)c(-c4ccc(F)cc4F)cc3OC(C)C)CC2)c1=O [Example 6, 1-(1-((2-cyclopropyl-2′,4′-difluoro-5-isopropoxybiphenyl-4-yl)methyl)piperidin-4-yl)-3-ethyl-2-oxo-1,2-dihydropyridine-4-carboxylic acid]",94,–
"CCc1c(C(=O)O)ccn(C2CCN(Cc3cc(C4CC4)c(-c4ccc(F)cc4F)c(F)c3OC(C)C)CC2)c1=O [Example 7, 1-(1-((6-cyclopropyl-2,2′,4′-trifluoro-3-isopropoxybiphenyl-4-yl)methyl)piperidin-4-yl)-3-ethyl-2-oxo-1,2-dihydropyridine-4-carboxylic acid]",124,–
"CCc1c(C(=O)O)ccn(C2CCN(Cc3cc(C4CC4)c(-c4ccc(F)cc4)c(F)c3OC(C)C)CC2)c1=O [Example 43, 1-(1-((6-cyclopropyl-2,4′-difluoro-3-isopropoxybiphenyl-4-yl)methyl)piperidin-4-yl)-3-ethyl-2-oxo-1,2-dihydropyridine-4-carboxylic acid]",133,–
"CCOc1c(CN2CCC(n3ccc(C(=O)O)c(CC)c3=O)CC2)cc(C2CC2)c(-c2ccc(F)cc2F)c1F [Example 45, 1-(1-((6-cyclopropyl-3-ethoxy-2,2′,4′-trifluorobiphenyl-4-yl)methyl)piperidin-4-yl)-3-ethyl-2-oxo-1,2-dihydropyridine-4-carboxylic acid]",98,–
"CCc1c(C(=O)O)ccn(C2CCN(Cc3cc(C4CC4)c(C4CC4)c(F)c3OC(C)C)CC2)c1=O [Example 47, 1-(1-(4,5-dicyclopropyl-3-fluoro-2-isopropoxybenzyl)piperidin-4-yl)-3-ethyl-2-oxo-1,2-dihydropyridine-4-carboxylic acid]",111,–
"Cc1c(C(=O)O)ccn(C2CCN(Cc3cc(C4CC4)c(-c4ccc(F)cc4)c(F)c3OC(C)C)CC2)c1=O [Example 49, 1-(1-((6-Cyclopropyl-2,4′-difluoro-3-isopropoxybiphenyl-4-yl)methyl)piperidin-4-yl)-3-methyl-2-oxo-1,2-dihydropyridine-4-carboxylic acid]",–,−0.51
"CCc1c(C(=O)O)ccn(C2CCN(Cc3cc(C4CC4)c(-c4ccc(F)cc4)cc3OC(C)C)CC2)c1=O [Example 51, 1-(1-((2-cyclopropyl-4′-fluoro-5-isopropoxybiphenyl-4-yl)methyl)piperidin-4-yl)-3-ethyl-2-oxo-1,2-dihydropyridine-4-carboxylic acid]",89,–
